The subject of experiment [1] is ARPE-19 cells. Description: Cell viability (XTT assay). It counts as cell-based. The note with it: Homo sapiens, 48 h, read-out: A. Safety IC50 on ARPE-19 cells. The protocol: ARPE-19 cells were incubated in a 96-well plate with different effectors for 48 hours. Fifty microliters of sodium 3′-[1-phenylaminocarbonyl)-3,4-tetrazolium]-bis(4-methoxy-6-nitro) benzene sulfonic acid hydrate (XTT) reagent was added to each well. The test is based on the cleavage of the yellow tetrazolium salt XTT to form an orange formazan dye by metabolically active cells. This bio-reduction occurs in viable cells only and is associated with NAD(P)H production through glycolysis. Therefore, the amount of formazan dye measured at 490 nm, correlates directly with the number of metabolically active cells reflecting cell proliferation, viability, and cytotoxicity. Each assay was performed in quadruplicate.
(§1) All compounds were evaluated in different experiments. Results are represented as the mean of three independent experiments. A. ARPE-19 cells were treated with dose response of compound for 48 h. Values are reported as IC50 measured with the XTT assay. B and C. ARPE-19 cells were treated with 5 μM (B) or 1 μM (C) compound then with 200 μM H2O2 for 2 h. ROS were analyzed by cytometry. […] As illustrated in FIG. 1A. D. ARPE-19 cells were treated with 2.5 μM compound for 48 h and the level of CXCL1 mRNA was evaluated by qPCR. […] As illustrated in FIG. 1B. E. TIME cells were pre-treated with 2.5 μM compound for 1 h then stimulated with 100 ng/ml CXCL8 for 15 min p-ERK levels were analyzed by immunoblotting. HSP90 served as loading control. […] As illustrated in FIG. 1C.

For experiment [2], the system named is ROS. In words: ROS labeling by cytometry after H2O2. It counts as cell-based. As to conditions: Homo sapiens, ARPE-19; for inhibition at 1 µM: 1 μM compound then 200 μM H2O2 for 2 h, read-out: C. ROS inhibition 1 μM - ARPE-19 cells; for inhibition at 5 µM: 5 μM compound then 200 μM H2O2 for 2 h, read-out: B. ROS inhibition 5 μM - ARPE-19 cells. The protocol: ARPE-19 cells were treated with MCK349 30 minutes then with 200 μM H2O2 for 2 h. 10 μM DCF-DA (2′,7′-Dichlorofluorescein diacetate) were added on cell media for 30 min. Cells were rinsed then detached (trypsin) and resuspended in PBS 0.5% BSA and 2 mM EDTA. The cells are analyzed by cytometry (ROS labeled with DCFDA-FITC).
as §1

The subject of experiment [3] is ERK activation (p-ERK). In words: p-ERK immunoblotting after CXCL8 stimulation. It counts as cell-based. The note with it: 2.5 μM compound 1 h then 100 ng/ml CXCL8 for 15 min; read-out: E. p-ERK inhibition - TIME. The protocol: Cells were lysed in buffer containing 3% SDS, 10% glycerol and 0.825 mM Na2HPO4. 30 to 50 μg of proteins separated on 10% SDS-PAGE, transferred onto a PVDF membrane and then exposed to the appropriate antibodies. Proteins were visualized with the ECL system using horseradish peroxidase-conjugated anti-rabbit or anti-mouse antibodies.
as §1
Background: In western blotting, separated proteins are transferred to a membrane and probed.

Experiment [4] deals with ocular (retinal) neo-angiogenesis. Description: Hypoxia-induced retinal neo-angiogenesis in zebrafish. It counts as in vivo. As to conditions: hypoxia 5% oxygen 72 h, 0.25, 0.5, or 1 μM. The protocol: All animal experiments were approved by the Experimental Animal Ethical Committee. Transgenic zebrafish embryos (fli: EGFP, blood vessels marked in GFP) were raised at 28° C. under standard experimental conditions. Zebrafish embryos at the age of 24 hpf were incubated in aquarium water containing 0.2 mmol/L 1-phenyl-2-thio-urea (PTU, Sigma). At 48-hpf, zebrafish embryos were placed for 72 h in normoxia (Nx) or hypoxia 5% oxygen […], in the presence of treatment. Retinal neo-angiogenesis was analyzed by fluorescent confocal microscope and quantified by ImageJ.

For experiment [5], the system named is pro-inflammatory cytokines. In words: LPS stimulated whole blood, multiplex ELISA. The note with it: human whole blood, 5 or 10 μM 1 h prior to 10 ng/ml LPS for 18 h. It counts as cell-based. The text has this: Human peripheral […] were obtained from healthy donors with informed consent following the Declaration of Helsinki according to recommendations of an independent scientific review board. The project has been validated by The Etablissement Français du Sang, the French national agency for blood collection (protocol 7952NQ). Blood samples were collected using ethylene diamine tetraacetic acid-containing tubes.
Whole blood will be removed from a single donor (K3-EDTA) and diluted 1:5 with RPMI 1640. Within 30 minutes of sampling, blood will be incubated with 5 or 10 μM MCK349 for 1 h prior to 10 ng/ml LPS stimulation for 18 h. Blood is centrifuged to recover plasma and cytokines are analyzed by multiplex ELISA (Meso Scale Discovery).
(§2) Cytokines from plasma (whole blood) or supernatant (ARPE-19 cells) were analyzed by multiplex ELISA. A multiplex ELISA was designed from U-PLEX Biomarker Group 1 (hu) Assays (K15069L-1). The protocol performed follows the instructions of the supplier.
In general terms: In an ELISA, binding on a coated surface is turned into a signal by an enzyme label.

For experiment [6], the system named is pro-inflammatory, pro-angiogenic and/or pro-fibrotic mRNA markers. Description: ARPE-19 stimulation to mimic diabetic retinopathy in vitro, mRNA by qPCR. It counts as cell-based. The note with it: ARPE-19, high glucose + cytokines, 5 or 10 μM. The procedure:
One microgram of total RNA was used for the reverse transcription, using the QuantiTect Reverse Transcription kit (QIAGEN, Hilden, Germany), with blend of oligo (dT) and random primers to prime first-strand synthesis. SYBR master mix plus (Eurogentec) was used for qPCR. The mRNA level was normalized to 36B4 mRNA
(§3) ARPE-19 cells were cultured in hyperglycaemic conditions (D-glucose, 25 mmol/l) for 16 days at 37° C. under 5% CO2 in medium (DMEM/F12) supplemented with 10% FBS and 1% penicillin. On day 16, cells were pre-treated with MCK349. On day 17, cells were washed and treated with MCK349 and cytokines (10 ng/ml IL1ß, 25 ng/ml VEGF and 25 ng/ml TNFα) for 24 h. Cytokines are analyzed by multiplex ELISA (Meso Scale Discovery) on the supernatant. Cells were recovered to analyze the mRNA level of different markers by qPCR.
For orientation: Real-time PCR tracks product formation cycle by cycle.

Experiment [7] has as its system pro-inflammatory, pro-angiogenic and/or pro-fibrotic cytokines. Description: ARPE-19 stimulation to mimic diabetic retinopathy in vitro, cytokines by multiplex ELISA. Type of experiment: cell-based. As to conditions: ARPE-19, high glucose + cytokines, 5, 10, or 25 μM. The procedure:
as §3, §2

Molecules are shown by their SMILES. Entries after “also recorded” stand apart in the source; their conditions may differ.

Usually IC50 stands for the concentration at which inhibition is half-maximal. A word on the inhibition: it is the share of the control response that was lost under treatment. Regarding `CC(C)c1ccc(Cn2nc(Nc3ccccc3)nc2N)cc1` [MCK263, 1-(4-isopropylbenzyl)-N^3-phenyl-1H-1,2,4-triazole-3,5-diamine], in experiment [1], the IC50 is > 25 µM. Also, in experiment [2], the inhibition at 1 µM was ≥ 50% and the inhibition at 5 µM is ≥ 50%. Also, the inhibition at 2.5 µM in experiment [3] was ≥ 50%. Besides, in experiment [4], the “ocular (retinal) neo-angiogenesis in zebrafish” value (from here on “ocular”) was “inhibit ocular (retinal) neo-angiogenesis; also recorded: inhibit ocular neoangiogenesis”.
As to `Nc1nc(Nc2ccccc2)n(Cc2cccc(Br)c2)n1` [MCK339, 1-(3-bromobenzyl)-N^5-phenyl-1H-1,2,4-triazole-3,5-diamine], the IC50 in experiment [1] is > 25 µM. Besides, in experiment [2], the inhibition at 1 µM was < 50% and the inhibition at 5 µM is ≥ 50%. In addition, in experiment [3], the inhibition at 2.5 µM is < 50%.
For the molecule `COc1ccc(Nc2nc(N)n(Cc3cccc(Br)c3)n2)cc1` [MCK340, 1-(3-bromobenzyl)-N^3-(4-methoxyphenyl)-1H-1,2,4-triazole-3,5-diamine], the IC50 in experiment [1] is > 25 µM. For the same molecule, in experiment [2], the inhibition at 1 µM was < 50% and the inhibition at 5 µM is < 50%. In addition, in experiment [3], the inhibition at 2.5 µM is < 50%.
For the molecule `Cc1ccc(Nc2nc(N)nn2Cc2cccc(Br)c2)cc1` [MCK341, 1-(3-bromobenzyl)-N^5-(4-methylphenyl)-1H-1,2,4-triazole-3,5-diamine], the half-inhibitory concentration (IC50) in experiment [1] was > 25 µM. In experiment [2], the inhibition at 1 µM is ≥ 50% and the inhibition at 5 µM was ≥ 50%. The inhibition at 2.5 µM in experiment [3] is < 50%.
Take `Cc1ccc(Nc2nc(N)n(Cc3cccc(Br)c3)n2)cc1` [MCK342, 1-(3-bromobenzyl)-N^3-(4-methylphenyl)-1H-1,2,4-triazole-3,5-diamine]: in experiment [1], the IC50 was > 25 µM. Also, in experiment [2], the inhibition at 1 µM was ≥ 50% and the inhibition at 5 µM was ≥ 50%. Besides, the inhibition at 2.5 µM in experiment [3] was < 50%. Further, the “pro-inflammatory cytokines induced by LPS stimulation in whole blood” value in experiment [5] is “inhibit pro-inflammatory cytokines”. Also, the “expression (mRNA) of pro-angiogenic and/or pro-inflammatory cytokines in diabetic retinopathy model in vitro” value in experiment [6] was “inhibit the expression”. The “secretion of pro-angiogenic and/or pro-inflammatory cytokines in diabetic retinopathy model in vitro” value in experiment [7] was “inhibit the expression (mRNA, FIG. 3) and secretion”. Moreover, in experiment [4], the “ocular” value is on record as “inhibit ocular neoangiogenesis”. Also, the “ocular” value in experiment [4] (listed as MC342) is reported as “inhibit ocular (retinal) neo-angiogenesis”.
Regarding `Nc1nc(Nc2ccc(Cl)cc2)n(Cc2cccc(Br)c2)n1` [MCK343, 1-(3-bromobenzyl)-N^5-(4-chlorophenyl)-1H-1,2,4-triazole-3,5-diamine], in experiment [1], the 50% inhibitory concentration (IC50) is > 25 µM. Moreover, in experiment [2], the inhibition at 1 µM is < 50% and the inhibition at 5 µM was ≥ 50%. For the same molecule, the inhibition at 2.5 µM in experiment [3] is ≥ 50%.
For `Nc1nc(Nc2ccc(Cl)cc2)nn1Cc1cccc(Br)c1` [MCK344, 1-(3-bromobenzyl)-N^3-(4-chlorophenyl)-1H-1,2,4-triazole-3,5-diamine], in experiment [1], the IC50 is > 25 µM. Besides, in experiment [2], the inhibition at 1 µM is ≥ 50% and the inhibition at 5 µM was ≥ 50%. In addition, the inhibition at 2.5 µM in experiment [3] is ≥ 50%. Moreover, the “ocular” value in experiment [4] is “inhibit ocular (retinal) neo-angiogenesis; also recorded: inhibit ocular neoangiogenesis”.
Consider `Nc1nc(Nc2ccc(Br)cc2)n(Cc2cccc(Br)c2)n1` [MCK345, 1-(3-bromobenzyl)-N^5-(4-bromophenyl)-1H-1,2,4-triazole-3,5-diamine], for which the 50% inhibitory concentration (IC50) in experiment [1] is > 25 µM. For the same molecule, in experiment [2], the inhibition at 1 µM was ≥ 50% and the inhibition at 5 µM was ≥ 50%. Besides, the inhibition at 2.5 µM in experiment [3] is ≥ 50%.
Take `Nc1nc(Nc2ccc(Br)cc2)nn1Cc1cccc(Br)c1` [MCK346, 1-(3-bromobenzyl)-N^3-(4-bromophenyl)-1H-1,2,4-triazole-3,5-diamine]: the IC50 in experiment [1] is > 25 µM. Also, in experiment [2], the inhibition at 1 µM is ≥ 50% and the inhibition at 5 µM is ≥ 50%. In addition, the inhibition at 2.5 µM in experiment [3] was ≥ 50%.
In the case of `COC(=O)c1ccc(Nc2nc(N)nn2Cc2cccc(Br)c2)cc1` [MCK347, methyl-4-((3-amino-1-(3-bromobenzyl)-1H-1,2,4-triazol-5-yl)amino)benzoate], in experiment [1], the IC50 was > 25 µM. Besides, in experiment [2], the inhibition at 1 µM is < 50% and the inhibition at 5 µM was < 50%. Besides, in experiment [3], the inhibition at 2.5 µM is ≥ 50%.
For the molecule `COC(=O)c1ccc(Nc2nc(N)n(Cc3cccc(Br)c3)n2)cc1` [MCK348, methyl-4-((5-amino-1-(3-bromobenzyl)-1H-1,2,4-triazol-3-yl)amino)benzoate], the IC50 in experiment [1] was > 25 µM. For the same molecule, in experiment [2], the inhibition at 1 µM is ≥ 50% and the inhibition at 5 µM was ≥ 50%. The inhibition at 2.5 µM in experiment [3] is ≥ 50%.
Take `CC(C)c1ccc(Cn2nc(Nc3ccc(Cl)c(Cl)c3)nc2N)cc1` [MCK350, N^3-(3,4-dichlorophenyl)-1-(4-isopropylbenzyl)-1H-1,2,4-triazole-3,5-diamine]: the IC50 in experiment [1] is > 25 µM. Besides, in experiment [2], the inhibition at 1 µM was ≥ 50% and the inhibition at 5 µM was ≥ 50%. Further, the inhibition at 2.5 µM in experiment [3] was ≥ 50%.
Take `Nc1nc(Nc2cccnc2)nn1Cc1cccc(Br)c1` [MCK351, 1-(3-bromobenzyl)-N^3-(pyridin-3-yl)-1H-1,2,4-triazole-3,5-diamine]: the IC50 in experiment [1] is > 25 µM. In experiment [2], the inhibition at 1 µM is < 50% and the inhibition at 5 µM was < 50%. In experiment [3], the inhibition at 2.5 µM is ≥ 50%.

(Values after patent US20260284014A1, “3,5-DIAMINOTRIAZOLE DERIVATIVES AND USES THEREOF FOR TREATING OCULAR DISEASES” (CENTRE NATIONAL DE LA RECHERCHE SCIENTIFIQUE, priority 2023, published 2026).)
